Measured values published in patent EP2739262B1, “USE OF A CB1 RECEPTOR ANTAGONIST AS A WHITENING AND/OR ANTI-BROWNING AGENT FOR KERATIN MATERIAL” (L'OREAL, priority 2011, dated 2013).
Read-outs that look alike come from different tables or passages of the source.

Tests used:
[1] = system: mélanocytes épidermiques humains normaux (NHEM); test: Melanin content of melanocytes (spectrophotometry at 450 nm); type: cell-based; details: result in words; for quantité de mélanine dans les mélanocytes (NHEM): via the CB1 receptor
Experimental: Des mélanocytes épidermiques humains normaux (NHEM) isolés de prépuce et fournis par Promocell (Heidelberg, Allemagne), sont cultivés pendant 24h à 37°C dans une atmosphère humide à 5% de CO2 dans un milieu de culture adapté M2 (Promocell).
L'AEA et les autres composés sont ajoutés directement dans le milieu de culture. 24h après chaque traitement, la viabilité des cellules a été mesurée par l'utilisation du colorant d'exclusion bleu Trypan (Maccarone et al., 2003).
Le mAEA et l'AEA sont testés in vitro à une concentration de 1 µM et comparés. Le mAEA est aussi utilisé à cette concentration quand il est utilisé en combinaison avec le SR1 à 0,1 µM.
La quantité en mélanine présente dans les cellules NHEM est mesurée selon une méthode connue de l'homme du métier (Xiao et al., Arch Dermatol Res 2007; 299 : 245-57). Selon cette méthode, les cellules NHEM sont traitées à la trypsine et lavées deux fois avec un tampon phosphate salin. Ensuite les échantillons sont resuspendus dans 200 µl d'eau MilliQ et 1 ml d'un mélange éthanol : éther (1:1, vol/vol) est ajouté pour éliminer les substances opaques autres que la mélanine. Après 15 minutes, les échantillons sont centrifugés à 600g pendant 5 minutes. Le culot est séché à l'air et dissout dans 200 µl de soude 1N. Les échantillons sont ensuite chauffés à 80°C pendant une heure et refroidis.
La quantité de mélanine est déterminée par spectrophotométrie à 450 nm en utilisant les contrôles standards de mélanine fournis par Sigma Chemical Co., de façon à vérifier la gamme de linéarité de l'essai. La quantité de mélanine est exprimée par rapport au contrôle.
Les résultats donnés sont les moyennes avec leurs écarts type de 3 essais indépendants, chacun réalisé en triplicata. Ils ont été comparés par analyse de variance (ANOVA).

[2] = system: epidermes reconstruits pigmentés (ERP); test: Depigmenting effect on reconstructed pigmented epidermis (ERP): melanin quantified by image analysis of Fontana Masson stained sections; type: cell-based, humains; details: for production de mélanine dans les épidermes pigmentés reconstruits: result in words
Experimental: Des épidermes pigmentés sont reconstruits sur un support collagénique (BPER) à l'aide de mélanocytes et kératinocytes humains normaux.
Les épidermes sont obtenus après 8 jours de reconstruction, les mélanocytes choisis sont de phototype estimé IV.1
Certains épidermes sont traités quotidiennement par le placebo, d'autres par le produit à tester […] à différentes concentrations (0,1 µM et 0,5µM).
Le produit à tester est évalué à deux concentrations en comparaison à son solvant seul (placebo) et à un actif dépigmentant de référence, le lucinol à 500µM. Les épidermes reconstruits ainsi traités sont irradiés ou non avec des UV.^2
Chaque condition expérimentale est réalisée en quadruplicat.
La qualité histologique des épidermes après traitement est évaluée sur coupes histologiques après coloration HES afin de déterminer l'impact du traitement sur les épidermes. Aussi la physiologie des mélanocytes est étudiée pour détecter une éventuelle mélano-cytotoxicité. Si aucune altération histologique ni aucun effet mélano-toxique du produit évalué n'est révélé, une quantification de la pigmentation est effectuée par quantification de la mélanine sur coupes histologiques par analyse d'images
Une quantification de la pigmentation par quantification microscopique de la mélanine est alors réalisée et permet d'objectiver une activité propigmentante du composé à tester.
La mélanine présente dans l'épiderme est colorée sur coupes histologiques (coloration Fontana Masson) puis quantifiée par analyse d'images. Pour cela, chaque épiderme est photographié sur toute sa largeur à l'aide d'un microscope. Environ 10 images sont acquises par épiderme (lumière blanche, grossissement X20).
La surface occupée par la mélanine est quantifiée à l'aide d'un logiciel d'analyse d'image développé à façon. Brièvement, chaque image est segmentée en 4 zones selon leur couleur (lumière, stratum corneum, épiderme vivant et BPER). La mélanine présente dans l'épiderme sous forme de grains noirs est seuillée comme étant la zone la plus sombre de l'épiderme sur le plan rouge. Les pixels occupés par la mélanine dans l'épiderme entier ou les couches vivantes sont ensuite quantifiés.
Cette quantification rend compte de la surface occupée par la mélanine ainsi que de la localisation moyenne de la mélanine dans l'épiderme.
Les résultats ci-dessous sont exprimés en pourcentage de stimulation relative par rapport au témoin cultivé en milieu de co-culture standard.

CCCCC/C=C\C/C=C\C/C=C\C/C=C\CCCC(=O)NCCO [AEA, N-arachidonoylethanolamine]
quantité de mélanine dans les mélanocytes (NHEM) [1]: augmentent de manière significative la quantité de mélanine

CCCCc1ccc(O)cc1O [Lucinol]
activity at 50 µM ([2]; light or radiation study, 360 h, with UV irradiation, 50µM 150mJ/cm^2 UVB SYST D15, irradiated DMSO = 131,914894, read-out: mélanine, % par rapport au témoin (DMSO 1/1000 = 100)): 31.9%
activity at 30 µM ([2]; light or radiation study, 408 h, without UV irradiation, 30µM SYST D17, read-out: mélanine, % par rapport au témoin (DMSO 1/1000 = 100)): 10.5%

Cc1c(C(=O)NN2CCCCC2)nn(-c2ccc(Cl)cc2Cl)c1-c1ccc(Cl)cc1 [SR141716, 5-(4-Chlorophenyl)-1-(2,4-dichloro-phenyl)-4-methyl-N-(piperidin-1-yl)-1H-pyrazole-3-carboxamide]
effets pro-pigmentants du mAEA ([1]; SR1 0,1 µM with mAEA 1 µM): empêche le mAEA d'avoir ses effets pro-pigmentants
activity at 0.1 µM ([2]; light or radiation study, 360 h, with UV irradiation, 0,1µM 150mJ/cm^2 UVB SYST D15, irradiated DMSO = 131,914894, read-out: mélanine, % par rapport au témoin (DMSO 1/1000 = 100)): 76.6%
activity at 0.5 µM ([2]; light or radiation study, 360 h, with UV irradiation, 0,5µM 150mJ/cm^2 UVB SYST D15, irradiated DMSO = 131,914894, read-out: mélanine, % par rapport au témoin (DMSO 1/1000 = 100)): 55.3%
activity at 0.1 µM ([2]; light or radiation study, 408 h, without UV irradiation, 0,1µM SYST D17, read-out: mélanine, % par rapport au témoin (DMSO 1/1000 = 100)): 64.5%
activity at 0.5 µM ([2]; light or radiation study, 408 h, without UV irradiation, 0,5µM SYST D17, read-out: mélanine, % par rapport au témoin (DMSO 1/1000 = 100)): 72.4%
production de mélanine dans les épidermes pigmentés reconstruits ([2]; with UV irradiation, 0,1 and 0,5µM): diminution importante de la production de mélanine
production de mélanine dans les épidermes pigmentés reconstruits ([2]; without UV irradiation, 0,1 and 0,5µM): diminution importante de la production de mélanine

CCCCC/C=C\C/C=C\C/C=C\C/C=C\CCCC(=O)N[C@H](C)CO [mAEA, R(+)-arachidonyl-1'-hydroxy-2'-propylamide]
quantité de mélanine dans les mélanocytes (NHEM) [1]: augmentent de manière significative la quantité de mélanine
